Experimental data taken from the kinase profiling compilation of Christmann-Franck et al. (2016).

Experiments:
Experiment in all cases: radiometric filter-binding kinase assay
IKBKB (human) = IKBKB (human) (UniProt O14920)
MAPK3 (human) = MAPK3 (human) (UniProt P27361)
MINK1 (human) = MINK1 (human) (UniProt Q8N4C8)
MKNK1 (human) = MKNK1 (human) (UniProt Q9BUB5)
MAPK15 (human) = MAPK15 (human) (UniProt Q8TD08)
MAP3K5 (human) = MAP3K5 (human) (UniProt Q99683)
GCK (human) = GCK (human) (UniProt Q12851)
AURKB (human) = AURKB (human) (UniProt Q96GD4)
IGF1R (human) = IGF1R (human) (UniProt P08069)
YES1 (human) = YES1 (human) (UniProt P07947)
PRKACA (human) = PRKACA (human) (UniProt P17612)
MAPK10 (human) = MAPK10 (human) (UniProt P53779)
MARK2 (human) = MARK2 (human) (UniProt Q7KZI7)
EPHB4 (human) = EPHB4 (human) (UniProt P54760)
CAMKK2 (human) = CAMKK2 (human) (UniProt Q96RR4)
PRKCA (human) = PRKCA (human) (UniProt P17252)
MAPK9 (human) = MAPK9 (human) (UniProt P45984)
RPS6KA1 KD1 KD2 (human) = RPS6KA1 KD1 KD2 (human) (UniProt Q15418)
CHEK1 (human) = CHEK1 (human) (UniProt O14757)
STK3 (human) = STK3 (human) (UniProt Q13188)
PHKG1 (human) = PHKG1 (human) (UniProt Q16816)
MKNK2 (human) = MKNK2 (human) (UniProt Q9HBH9)
[1] = tested on: AKT2 (human), P31751 [S474D]
MAP3K1 (human) = MAP3K1 (human) (UniProt Q13233)
PRKAA1 or PRKAA2 (rat) = settings: accession and sequence are those of the human protein
NEK2 (human) = NEK2 (human) (UniProt P51955)
PKN2 (human) = PKN2 (human) (UniProt Q16513)
CHEK2 (human) = CHEK2 (human) (UniProt O96017)
NTRK1 (human) = NTRK1 (human) (UniProt P04629)
MAPKAPK2 (human) = MAPKAPK2 (human) (UniProt P49137)
[2] = target: STK11 CAB39 STRADA (human) (UniProt Q9Y376+Q7RTN6+Q15831)
PIM2 (human) = PIM2 (human) (UniProt Q9P1W9)
SRC (human) = SRC (human) (UniProt P12931)
MAP2K1 (human) = MAP2K1 (human) (UniProt Q02750)
MAPK1 (human) = MAPK1 (human) (UniProt P28482)

CHEK1 (human), sequence (O14757 whole entry, looked up): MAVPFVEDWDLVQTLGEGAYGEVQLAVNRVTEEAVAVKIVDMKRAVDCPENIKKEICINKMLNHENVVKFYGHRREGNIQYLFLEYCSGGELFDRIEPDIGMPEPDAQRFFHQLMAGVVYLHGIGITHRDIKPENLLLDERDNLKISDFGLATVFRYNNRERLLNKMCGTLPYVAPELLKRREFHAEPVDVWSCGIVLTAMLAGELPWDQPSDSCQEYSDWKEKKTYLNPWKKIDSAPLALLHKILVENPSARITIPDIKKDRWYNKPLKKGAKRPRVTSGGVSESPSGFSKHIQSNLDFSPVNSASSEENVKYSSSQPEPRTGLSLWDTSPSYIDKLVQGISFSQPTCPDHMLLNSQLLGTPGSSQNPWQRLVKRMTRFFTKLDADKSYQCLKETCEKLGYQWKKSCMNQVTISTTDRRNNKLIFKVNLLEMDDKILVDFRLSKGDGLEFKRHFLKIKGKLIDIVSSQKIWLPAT
MAP2K1 (human), sequence (Q02750 whole entry, looked up): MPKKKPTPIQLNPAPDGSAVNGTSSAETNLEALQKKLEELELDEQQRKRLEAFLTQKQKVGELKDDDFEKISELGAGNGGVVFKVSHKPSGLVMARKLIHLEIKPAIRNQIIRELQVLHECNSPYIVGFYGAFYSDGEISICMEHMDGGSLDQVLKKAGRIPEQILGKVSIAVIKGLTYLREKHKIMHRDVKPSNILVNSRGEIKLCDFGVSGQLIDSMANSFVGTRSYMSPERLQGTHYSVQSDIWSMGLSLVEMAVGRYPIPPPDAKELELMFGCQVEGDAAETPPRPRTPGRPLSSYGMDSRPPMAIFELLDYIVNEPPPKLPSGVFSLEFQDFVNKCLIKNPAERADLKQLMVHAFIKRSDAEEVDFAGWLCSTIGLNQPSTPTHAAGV
YES1 (human), sequence (P07947 whole entry, looked up): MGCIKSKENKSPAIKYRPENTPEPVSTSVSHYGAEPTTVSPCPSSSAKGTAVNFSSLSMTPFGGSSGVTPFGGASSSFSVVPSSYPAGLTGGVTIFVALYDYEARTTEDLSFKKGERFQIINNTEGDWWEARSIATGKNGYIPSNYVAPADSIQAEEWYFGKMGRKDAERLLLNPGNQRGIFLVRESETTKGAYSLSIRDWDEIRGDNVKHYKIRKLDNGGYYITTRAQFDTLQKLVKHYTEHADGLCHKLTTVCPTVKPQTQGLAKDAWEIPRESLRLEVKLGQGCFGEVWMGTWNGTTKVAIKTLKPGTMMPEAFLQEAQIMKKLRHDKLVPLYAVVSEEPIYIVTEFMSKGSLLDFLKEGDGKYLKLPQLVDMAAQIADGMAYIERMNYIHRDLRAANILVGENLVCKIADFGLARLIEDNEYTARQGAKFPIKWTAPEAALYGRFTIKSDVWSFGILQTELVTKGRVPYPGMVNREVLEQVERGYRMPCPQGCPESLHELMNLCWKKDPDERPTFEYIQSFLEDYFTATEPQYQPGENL
AKT2 (human), P31751 [S474D], sequence (P31751 whole entry S474D, looked up): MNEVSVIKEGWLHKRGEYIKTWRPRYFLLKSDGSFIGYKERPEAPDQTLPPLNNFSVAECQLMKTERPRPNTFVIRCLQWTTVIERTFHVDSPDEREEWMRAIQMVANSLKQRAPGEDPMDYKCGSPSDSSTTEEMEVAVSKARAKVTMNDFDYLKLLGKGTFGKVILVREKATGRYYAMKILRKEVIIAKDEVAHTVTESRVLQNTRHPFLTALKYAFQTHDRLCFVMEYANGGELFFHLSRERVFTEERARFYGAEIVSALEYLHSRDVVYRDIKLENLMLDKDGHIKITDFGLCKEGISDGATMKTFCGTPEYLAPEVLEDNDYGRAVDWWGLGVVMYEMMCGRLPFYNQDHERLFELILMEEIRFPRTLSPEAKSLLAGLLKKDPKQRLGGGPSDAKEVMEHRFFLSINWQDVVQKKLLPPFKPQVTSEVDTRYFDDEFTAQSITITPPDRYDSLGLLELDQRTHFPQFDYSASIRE
PIM2 (human), sequence (Q9P1W9 whole entry, looked up): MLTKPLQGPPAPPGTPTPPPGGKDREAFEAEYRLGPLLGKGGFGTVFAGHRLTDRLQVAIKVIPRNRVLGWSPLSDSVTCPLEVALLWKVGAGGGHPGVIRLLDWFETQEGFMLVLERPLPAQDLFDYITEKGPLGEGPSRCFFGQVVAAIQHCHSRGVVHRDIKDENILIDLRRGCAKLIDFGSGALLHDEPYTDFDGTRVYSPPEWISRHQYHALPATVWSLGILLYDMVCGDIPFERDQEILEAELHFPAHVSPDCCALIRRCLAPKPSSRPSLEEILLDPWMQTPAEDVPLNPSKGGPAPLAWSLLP
IKBKB (human), sequence (O14920 whole entry, looked up): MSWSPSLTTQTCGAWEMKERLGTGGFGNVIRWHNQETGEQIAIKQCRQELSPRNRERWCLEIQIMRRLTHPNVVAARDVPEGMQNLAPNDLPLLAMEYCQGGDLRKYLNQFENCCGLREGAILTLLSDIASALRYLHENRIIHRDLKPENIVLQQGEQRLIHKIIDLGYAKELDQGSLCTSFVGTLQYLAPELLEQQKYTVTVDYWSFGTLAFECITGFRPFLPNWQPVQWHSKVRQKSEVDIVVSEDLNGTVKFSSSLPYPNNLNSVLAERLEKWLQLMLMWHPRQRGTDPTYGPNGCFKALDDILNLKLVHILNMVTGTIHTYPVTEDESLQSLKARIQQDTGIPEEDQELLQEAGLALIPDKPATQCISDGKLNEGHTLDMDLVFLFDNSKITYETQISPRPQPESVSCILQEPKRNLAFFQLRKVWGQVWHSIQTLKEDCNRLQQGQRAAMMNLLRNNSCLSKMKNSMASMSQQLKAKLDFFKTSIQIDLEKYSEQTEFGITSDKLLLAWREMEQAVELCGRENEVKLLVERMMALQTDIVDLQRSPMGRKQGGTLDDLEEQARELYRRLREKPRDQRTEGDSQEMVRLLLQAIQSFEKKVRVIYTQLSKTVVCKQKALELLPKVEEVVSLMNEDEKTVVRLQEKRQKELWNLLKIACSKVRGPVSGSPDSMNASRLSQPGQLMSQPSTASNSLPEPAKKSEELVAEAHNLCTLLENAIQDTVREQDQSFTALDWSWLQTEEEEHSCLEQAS
IGF1R (human), sequence (P08069 whole entry, looked up): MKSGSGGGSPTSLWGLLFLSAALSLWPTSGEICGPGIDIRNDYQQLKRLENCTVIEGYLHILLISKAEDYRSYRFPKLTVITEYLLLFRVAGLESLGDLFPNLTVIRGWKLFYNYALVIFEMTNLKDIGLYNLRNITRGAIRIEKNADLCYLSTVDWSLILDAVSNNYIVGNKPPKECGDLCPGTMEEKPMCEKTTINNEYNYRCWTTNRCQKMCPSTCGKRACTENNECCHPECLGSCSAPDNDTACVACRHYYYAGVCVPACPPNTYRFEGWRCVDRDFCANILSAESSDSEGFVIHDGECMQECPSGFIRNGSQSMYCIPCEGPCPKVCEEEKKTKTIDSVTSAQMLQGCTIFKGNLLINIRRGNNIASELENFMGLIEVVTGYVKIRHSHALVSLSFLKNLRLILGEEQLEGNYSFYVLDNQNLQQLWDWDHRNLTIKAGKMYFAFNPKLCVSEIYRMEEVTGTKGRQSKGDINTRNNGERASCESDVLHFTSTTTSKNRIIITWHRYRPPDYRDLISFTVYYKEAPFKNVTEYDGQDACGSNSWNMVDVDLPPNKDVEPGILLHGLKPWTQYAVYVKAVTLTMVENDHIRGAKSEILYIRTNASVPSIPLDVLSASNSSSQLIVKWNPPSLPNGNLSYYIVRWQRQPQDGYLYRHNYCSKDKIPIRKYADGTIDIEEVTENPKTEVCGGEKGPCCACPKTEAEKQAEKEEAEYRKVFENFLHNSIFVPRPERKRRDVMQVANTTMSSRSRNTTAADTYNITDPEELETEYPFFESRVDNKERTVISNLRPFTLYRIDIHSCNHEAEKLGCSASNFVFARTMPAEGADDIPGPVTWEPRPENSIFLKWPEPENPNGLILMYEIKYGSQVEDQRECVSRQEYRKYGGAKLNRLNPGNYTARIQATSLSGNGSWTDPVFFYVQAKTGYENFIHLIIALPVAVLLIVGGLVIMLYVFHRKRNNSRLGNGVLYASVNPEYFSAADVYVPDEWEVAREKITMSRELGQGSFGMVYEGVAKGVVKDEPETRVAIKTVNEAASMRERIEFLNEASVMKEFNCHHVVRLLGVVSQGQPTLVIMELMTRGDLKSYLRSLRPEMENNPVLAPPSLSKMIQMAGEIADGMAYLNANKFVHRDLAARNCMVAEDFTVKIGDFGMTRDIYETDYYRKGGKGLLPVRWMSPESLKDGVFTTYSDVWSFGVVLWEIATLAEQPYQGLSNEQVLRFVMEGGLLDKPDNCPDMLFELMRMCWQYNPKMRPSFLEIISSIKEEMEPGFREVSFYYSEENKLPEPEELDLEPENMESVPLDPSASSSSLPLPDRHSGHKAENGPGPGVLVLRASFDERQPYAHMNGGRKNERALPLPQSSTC
PHKG1 (human), sequence (Q16816 whole entry, looked up): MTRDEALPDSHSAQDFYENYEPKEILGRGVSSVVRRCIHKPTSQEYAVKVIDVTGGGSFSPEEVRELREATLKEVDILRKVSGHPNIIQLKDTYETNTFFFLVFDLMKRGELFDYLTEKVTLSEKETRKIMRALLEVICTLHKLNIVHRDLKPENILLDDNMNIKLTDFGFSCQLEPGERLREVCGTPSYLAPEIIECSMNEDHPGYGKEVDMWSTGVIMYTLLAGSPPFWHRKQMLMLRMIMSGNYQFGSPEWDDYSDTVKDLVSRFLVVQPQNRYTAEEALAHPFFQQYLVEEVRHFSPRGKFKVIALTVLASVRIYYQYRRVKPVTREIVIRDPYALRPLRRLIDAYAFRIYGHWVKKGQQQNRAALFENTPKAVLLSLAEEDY

## Oc1ccc2ccccc2c1SSc1c(O)ccc2ccccc12
IKBKB (human); compound 1.0 µM
  residual activity: 33%
IKBKB (human); compound 5.0 µM
  residual activity: 6%
IKBKB (human); compound 10.0 µM
  residual activity: 68%
MAPK3 (human); compound 1.0 µM
  residual activity: 9%
MAPK3 (human); compound 5.0 µM
  residual activity: 6%
MAPK3 (human); compound 10.0 µM
  residual activity: 8%
MINK1 (human); compound 1.0 µM
  residual activity: 3%
MINK1 (human); compound 5.0 µM
  residual activity: 1%
MKNK1 (human); compound 1.0 µM
  residual activity: 88%
MKNK1 (human); compound 5.0 µM
  residual activity: 76%
MKNK1 (human); compound 10.0 µM
  residual activity: 100%
MAPK15 (human); compound 1.0 µM
  residual activity: 2%
MAPK15 (human); compound 5.0 µM
  residual activity: 1%
MAPK15 (human); compound 10.0 µM
  residual activity: 49%
MAP3K5 (human); compound 1.0 µM
  residual activity: 129%
MAP3K5 (human); compound 5.0 µM
  residual activity: 154%
GCK (human); compound 1.0 µM
  residual activity: 30%
GCK (human); compound 5.0 µM
  residual activity: 2%
AURKB (human); compound 1.0 µM
  residual activity: 2%
AURKB (human); compound 5.0 µM
  residual activity: 2%
AURKB (human); compound 10.0 µM
  residual activity: 5%
IGF1R (human); compound 1.0 µM
  residual activity: 87%
IGF1R (human); compound 5.0 µM
  residual activity: 94%
IGF1R (human); compound 10.0 µM
  residual activity: 84%
YES1 (human); compound 1.0 µM
  residual activity: 59%
YES1 (human); compound 5.0 µM
  residual activity: 34%
YES1 (human); compound 10.0 µM
  residual activity: 60%
PRKACA (human); compound 1.0 µM
  residual activity: 101%
PRKACA (human); compound 5.0 µM
  residual activity: 92%
PRKACA (human); compound 10.0 µM
  residual activity: 100%
MAPK10 (human); compound 1.0 µM
  residual activity: 106%
MAPK10 (human); compound 5.0 µM
  residual activity: 77%
MARK2 (human); compound 1.0 µM
  residual activity: 85%
MARK2 (human); compound 5.0 µM
  residual activity: 66%
EPHB4 (human); compound 1.0 µM
  residual activity: 109%
EPHB4 (human); compound 5.0 µM
  residual activity: 119%
CAMKK2 (human); compound 1.0 µM
  residual activity: 98%
CAMKK2 (human); compound 5.0 µM
  residual activity: 49%
CAMKK2 (human); compound 10.0 µM
  residual activity: 90%
PRKCA (human); compound 1.0 µM
  residual activity: 91%
PRKCA (human); compound 5.0 µM
  residual activity: 48%
PRKCA (human); compound 10.0 µM
  residual activity: 65%
MAPK9 (human); compound 1.0 µM
  residual activity: 94%
MAPK9 (human); compound 5.0 µM
  residual activity: 80%
MAPK9 (human); compound 10.0 µM
  residual activity: 94%
RPS6KA1 KD1 KD2 (human); compound 1.0 µM
  residual activity: 78%
RPS6KA1 KD1 KD2 (human); compound 5.0 µM
  residual activity: 62%
CHEK1 (human); compound 1.0 µM
  residual activity: 89%
CHEK1 (human); compound 5.0 µM
  residual activity: 88%
CHEK1 (human); compound 10.0 µM
  residual activity: 88%
STK3 (human); compound 1.0 µM
  residual activity: 5%
STK3 (human); compound 5.0 µM
  residual activity: 6%
STK3 (human); compound 10.0 µM
  residual activity: 51%
PHKG1 (human); compound 1.0 µM
  residual activity: 100%
PHKG1 (human); compound 5.0 µM
  residual activity: 103%
PHKG1 (human); compound 10.0 µM
  residual activity: 108%
MKNK2 (human); compound 1.0 µM
  residual activity: 97%
MKNK2 (human); compound 5.0 µM
  residual activity: 78%
MKNK2 (human); compound 10.0 µM
  residual activity: 87%
[1]; compound 1.0 µM
  residual activity: 1%
[1]; compound 5.0 µM
  residual activity: 0%
[1]; compound 10.0 µM
  residual activity: 0%
MAP3K1 (human); compound 1.0 µM
  residual activity: 64%
MAP3K1 (human); compound 5.0 µM
  residual activity: 38%
PRKAA1 or PRKAA2 (rat); compound 1.0 µM
  residual activity: 55%
PRKAA1 or PRKAA2 (rat); compound 5.0 µM
  residual activity: 27%
PRKAA1 or PRKAA2 (rat); compound 10.0 µM
  residual activity: 90%
NEK2 (human); compound 1.0 µM
  residual activity: 10%
NEK2 (human); compound 5.0 µM
  residual activity: 8%
NEK2 (human); compound 10.0 µM
  residual activity: 54%
PKN2 (human); compound 1.0 µM
  residual activity: 72%
PKN2 (human); compound 5.0 µM
  residual activity: 30%
PKN2 (human); compound 10.0 µM
  residual activity: 87%
CHEK2 (human); compound 1.0 µM
  residual activity: 58%
CHEK2 (human); compound 5.0 µM
  residual activity: 34%
CHEK2 (human); compound 10.0 µM
  residual activity: 94%
NTRK1 (human); compound 1.0 µM
  residual activity: 63%
NTRK1 (human); compound 5.0 µM
  residual activity: 19%
MAPKAPK2 (human); compound 1.0 µM
  residual activity: 90%
MAPKAPK2 (human); compound 5.0 µM
  residual activity: 69%
MAPKAPK2 (human); compound 10.0 µM
  residual activity: 76%
[2]; compound 1.0 µM
  residual activity: 60%
[2]; compound 5.0 µM
  residual activity: 17%
PIM2 (human); compound 1.0 µM
  residual activity: 65%
PIM2 (human); compound 5.0 µM
  residual activity: 21%
PIM2 (human); compound 10.0 µM
  residual activity: 81%
SRC (human); compound 1.0 µM
  residual activity: 42%
SRC (human); compound 5.0 µM
  residual activity: 17%
SRC (human); compound 10.0 µM
  residual activity: 89%
MAP2K1 (human); compound 1.0 µM
  residual activity: 85%
MAP2K1 (human); compound 5.0 µM
  residual activity: 18%
MAP2K1 (human); compound 10.0 µM
  residual activity: 96%
MAPK1 (human); compound 1.0 µM
  residual activity: 56%
MAPK1 (human); compound 5.0 µM
  residual activity: 39%
MAPK1 (human); compound 10.0 µM
  residual activity: 101%
